Among the data in ChEMBL document CHEMBL3046663, “Assessing the effects of three potential chemical repellents to prevent bird damage to corn seeds and seedlings” (Pest Manag Sci, 2013) are Activity and inhibition values, retold here.

The source made the active and inactive calls. The rule behind the calls is not given here.

The subject of data set [1] is Zea mays. Briefly: Phytotoxicity against Zea mays (maize) seeds assessed as germination rate at 25 degC after 5-6 days by standard vigour method. In kind it is organism-based. The conditions noted are these: in vivo.
Data set [2] deals with Columba livia. Briefly: Bird repellent activity against Columba livia f. domestica fed with compound treated maize seeds assessed as feeding deterrence activity at 1 ml/kg by aviary food choice trials. In kind it is functional, organism-based.
The subject of data set [3] is Zea mays. The experiment in a line: Phytotoxicity against Zea mays (maize) seeds assessed as germination rate at 10 degC after 7 days by standard vigour method. In kind it is organism-based. The conditions noted are these: in vivo, 168 h.
Data set [4] has as its system Columba livia. Briefly: Bird repellent activity against Columba livia f. domestica fed with compound treated maize seeds assessed as feeding deterrence activity at 0.085 ml/kg measured for 4 days by aviary food choice trials. In kind it is functional, organism-based.
Data set [5] has as its system Columba livia. The experiment in a line: Bird repellent activity against Columba livia f. domestica assessed as decrease in damage of maize seedlings grown from compound-treated seeds at 0.085 ml/kg measured in the field at 2 to 16 days after germination during field trials. In kind it is functional, organism-based.
Data set [6] deals with Columba livia. Briefly: Bird repellent activity against Columba livia f. domestica assessed as decrease in damage of maize seedlings grown from compound-treated seeds at 0.085 ml/kg measured after 3 days exposure during aviary trials. In kind it is functional, organism-based.
For data set [7], the system named is Columba livia. The experiment in a line: Bird repellent activity against Columba livia f. domestica assessed as decrease in damage of maize seedlings grown from compound-treated seeds at 1.4 ml/kg measured in the field at 2 to 16 days after germination during field trials. Format: functional, organism-based.
Data set [8] deals with Columba livia. The experiment in a line: Bird repellent activity against Columba livia f. domestica assessed as decrease in damage of maize seedlings grown from compound-treated seeds at 1.4 ml/kg measured after 3 days exposure during aviary trials. In kind it is functional, organism-based.
Data set [9] concerns Columba livia. The experiment in a line: Bird repellent activity against Columba livia f. domestica fed with compound treated maize seeds assessed as feeding deterrence activity at 1.4 ml/kg measured for 4 days by aviary food choice trials. Format: functional, organism-based.

Take `O=C1c2ccccc2C(=O)c2ccccc21` [ANTHRAQUINONE]: the Activity result with Zea mays [1] and in the data set with Zea mays [3] was “Non-toxic” each time. Besides, the result in the data set with Columba livia [2] was inactive.
On to `COC(=O)c1ccccc1N` [METHYL ANTHRANILATE], for which, in the data set on Columba livia [4], the result was Active. The inhibition entry with Columba livia [5] and in the data set on Columba livia [6] was “inactive” throughout. Also, the Activity result in the data set on Zea mays [1] and with Zea mays [3] was “Non-toxic” each time.
Consider `CC(C)=C1CC[C@@H](C)CC1=O` [PULEGONE], for which the inhibition entry with Columba livia [7] and in the data set with Columba livia [8] was “inactive” each time. In addition, the Activity result in the data set on Zea mays [1] and with Zea mays [3] was “Non-toxic” in each case. Moreover, the result in the data set on Columba livia [9] was Active.
